Measurements from ChEMBL document CHEMBL1121593, “Synthesis of 2,4-disubstituted 6-methoxy-8-aminoquinoline analogues as potential antiparasitics” (J Med Chem, 1980).

How the values were obtained:
Cricetinae gen. sp. [1] = test: (§1) G index is the relative activity to that of glucantime was measured on Leishmania donovani in hamsters.; assay type: functional, hamster
Mus musculus [2] = test: (§2) Mean survival time which expresses the antimalarial activity of compound was measured against Plasmodium berghei in mice (Mus musculus) at 640 mg/kg dose; assay type: functional
Mus musculus [3] = test: (§3) Mean survival time which expresses the antimalarial activity of compound was measured against Plasmodium berghei in mice (Mus musculus) at 160 mg/kg dose; assay type: functional
Mus musculus [4] = test: Mean survival time which expresses the antimalarial activity of compound was measured against Plasmodium berghei in mice (Mus musculus) at 40 mg/kg dose; assay type: functional
Mus musculus [5] = test: Mean survival time which expresses the antimalarial activity of compound was measured against Plasmodium berghei in mice (Mus musculus) at 80 mg/kg dose; assay type: functional
Mus musculus [6] = test: Mean survival time which expresses the antimalarial activity of compound was measured against Plasmodium berghei in mice (Mus musculus) at 20 mg/kg dose; assay type: functional
Mus musculus [7] = test: (§4) Mean survival time which expresses the antimalarial activity of compound was measured against Plasmodium berghei in mice (Mus musculus) at 320 mg/kg dose; assay type: functional
Cricetinae gen. sp. [8] = test: as §1; assay type: functional, Cricetulus griseus
Mus musculus [9] = test: as §3; assay type: ADME, organism-based; parameters: dose 160 mg/kg; settings: in vivo
Mus musculus [10] = test: as §2; assay type: ADME, organism-based; parameters: dose 640 mg/kg; settings: in vivo
Mus musculus [11] = test: Mean survival time which expresses the antimalarial activity of compound was measured against Plasmodium berghei in mice (Mus musculus) a 160 mg/kg dose; assay type: functional
Mus musculus [12] = test: as §4; assay type: ADME, organism-based; parameters: dose 320 mg/kg; settings: in vivo
Mus musculus [13] = test: Mean survival time which expresses the antimalarial activity of compound was measured against Plasmodium berghei in mice (Mus musculus) at […] mg/kg dose; assay type: functional
Plasmodium cynomolgi = test: Radical curative activity in presence of chloroquine against Plasmodium cynomolgi infected Rhesus monkey at 1.3 mg/kg; assay type: functional

| Structure (SMILES) | Relative activity (Cricetinae gen. sp. [1]) | Delta MST (Mus musculus [2]) | Delta MST (Mus musculus [3]) | Delta MST (Mus musculus [4]) | Delta MST (Mus musculus [6]) | further results |
| --- | --- | --- | --- | --- | --- | --- |
| CCc1cc(C)c2cc(OC)cc(NCCCCCCN(CC)CC)c2n1 | 130 | 0.7 days | 0.3 days | 0.3 days | – | – |
| CCc1cc(C)nc2c(NC(C)CCCN)cc(OC)cc12 (centres undefined) | – | 10.3 days | 5.1 days | 2.3 days | 1.7 days | Delta MST (Mus musculus [5]): 3.7 days; Delta MST (Mus musculus [7]): 7.7 days |
| CCN(CC)CCCCCCNc1cc(OC)cc2c(C)cc(CCBr)nc12 | – | – | 0 days | 0.3 days | – | Relative activity (Cricetinae gen. sp. [8]): 2.6; Deaths (Mus musculus [9]): 5; Deaths (Mus musculus [10]): 5 |
| CCc1cc(C)nc2c(NCCCCCCN(CC)CC)cc(OC)cc12 | 29.2 | 4.9 days | 2.7 days | 1.3 days | – | – |
| C=Cc1cc(C)c2cc(OC)cc(NC(C)CCCN)c2n1 (centres undefined) | – | 6.2 days | – | 0 days | 0 days | Delta MST (Mus musculus [5]): 0.6 days; Delta MST (Mus musculus [11]): 0.4 days; Delta MST (Mus musculus [7]): 2.2 days |
| COc1cc(NC(C)CCCN)c2ncccc2c1 (centres undefined) [PRIMAQUINE] | 2.1 | – | – | 5 days | 4 days | Deaths (Mus musculus [9]): 2; Deaths (Mus musculus [12]): 5; Deaths (Mus musculus [10]): 5; Delta MST (Mus musculus [13]): 9.4 days |
| CCc1cc(C)c2cc(OC)cc(NC(C)CCCN)c2n1 (centres undefined) | 8.99 | – | – | – | – | Cured (Plasmodium cynomolgi): 90% |
